In patent US8309598B2, “Cooling compounds” (Givaudan S.A., priority 2007, dated 2012):

What was measured:
Type in all cases: in vivo
[1] = Tasting of a dilute solution in de-ionized water against water as control
Experimental: A 0.1% w/w solution of 5-(4H-benzo[d][1,3]oxathiin-2-yl)-2-methoxyphenol was prepared in ethanol and diluted, with good mixing, into de-ionized water: thereby, generating a 1 ppm solution of 5-(4H-benzo[d][1,3]oxathiin-2-yl)-2-methoxyphenol in water. This solution was tasted using de-ionized water as the control.
A 20 ppm solution of 5-(4H-benzo[d][1,3]oxathiin-2-yl)-2,3-dimethoxyphenol (0.1% w/w in EtOH) was prepared in de-ionized water. The resulting solution was evaluated against de-ionized water as the control.
One gram of a 1000 ppm solution of 2-(4-methoxyphenyl)-4H-benzo[d][1,3]oxathiine in EtOH was added to 99 grams of water generating a 10 ppm taste solution. This solution was tasted relative to water.
One gram of a 1000 ppm solution of 4-(4H-benzo[d][1,3]oxathiin-2-yl)phenol in EtOH was added to 99 grams of water generating a 10 ppm taste solution. This solution was tasted relative to water.

[2] = Tasting in sugar/lemon flavor water against control without compound; settings: 1 gram of 1000 ppm EtOH solution with 5 g sugar, 1 gram 1% lemon flavor, 93 grams water
Experimental: Five grams of sugar, 1 gram of a 1% solution of lemon flavor in EtOH and 1 gram of a 1000 ppm solution of 2-(4-methoxyphenyl)-4H-benzo[d][1,3]oxathiine in EtOH were added to 93 grams water. The resulting solution was tasted relative to a control made up of 5 g sugar, 1 gram lemon flavor and 94 g water.
Five grams of sugar, 1 gram of a 1% solution of lemon flavor in EtOH and 1 gram of a 1000 ppm solution of 4-(4H-benzo[d][1,3]oxathiin-2-yl)phenol in EtOH were added to 93 grams water. The resulting solution was tasted relative to a control made up of 5 g sugar, 1 gram lemon flavor and 94 g water.

[3] = Tasting in pistachio-flavored sweetened milk against control without compound; settings: 0.8 ppm sample in pistachio-flavored sweetened milk
Experimental: A pistachio-flavored sweetened milk was prepared using 87.52% by weight of 2% reduced fat milk, 10% by weight of granulated fruit sugar, 1.4% w/w of FD&C Blue #1 (0.01% w/w in water), 0.8% w/w of FD&C yellow #5 (0.1% w/w in water). 0.2% w/w of natural pistachio flavor (Givaudan) and 0.08% of a 0.10% w/w solution of 5-(4H-benzo[d][1,3]oxathiin-2-yl)-2-methoxyphenol in ethanol generating a 0.8 ppm sample. The control was prepared the same by increasing the milk to 87.6% and leaving out 5-(4H-benzo[d][1,3]oxathiin-2-yl)-2-methoxyphenol.

[4] = Tasting in cantaloupe-flavored taffy against control without compound; settings: 0.14% w/w of a 0.1% w/v EtOH solution in cantaloupe-flavored taffy with malic acid
Experimental: A desired quantity of taffy was chipped off using hammer and chisel and melted in the microwave for 5-30 seconds depending on batch size. Next, 1.2% w/w of a cantaloupe flavor (Givaudan) was added to 98.26% w/w sample of the taffy followed by 0.4% w/w of granular malic acid and 0.14% w/w of 5-(4H-benzo[d][1,3]oxathiin-2-yl)-2-methoxyphenol (0.1% w/v in EtOH). The control sample was produced the same by increasing the taffy base to make up for the absence of 5-(4H-benzo[d][1,3]oxathiin-2-yl)-2-methoxyphenol in the formula. In both the control and the experimental sample, the contents were well mixed by hand while wearing gloves. The taffy was shaped into individual portions and covered in an airtight container overnight.

[5] = Tasting in banana-flavored thawed vanilla ice cream against control without compound; settings: 0.02 g of a 1% EtOH solution with 0.02 g banana flavor in 99.96 g thawed vanilla ice cream
Experimental: Vanilla ice cream was thawed in the microwave for 20 seconds. Next, 0.02 g of N&A banana ice cream flavor and 0.02 g of a 1% solution of 5-(4H-benzo[d][1,3]oxathiin-2-yl)-2-ethoxyphenol in EtOH were added to 99.96 g of the thawed vanilla ice cream. The resulting mixture was mixed well with a spoon and tasted relative to the control, which was made up of 0.02 g of the N&A banana flavor in 99.98 g of the thawed vanilla ice cream.

[6] = Tasting in sweetened lime-flavored beverage against control without compound; settings: 0.07% w/w of a 1.0% w/w EtOH solution in lime beverage (10% fruit sugar, citric acid)
Experimental: Granulated fruit sugar, 10% w/w, 0.25% w/W of citric acid, 0.24% w/w of FD&C yellow #5 (0.1% w/w in water), 0.24% of FD&C blue #1 (0.01% w/w in water), 0.1% w/w 15 fold lime oil (1.0% w/w in EtOH), 0.03% w/v of sodium citrate and 0.07% w/w of 5-(4H-benzo[d][1,3]oxathiin-2-yl)-2,3-dimethoxyphenol (1.0% w/w in EtOH) were added to 89.07% w/v of de-ionized water. The control was prepared by eliminating 5-(4H-benzo[d][1,3]oxathiin-2-yl)-2,3-dimethoxyphenol and increasing the water content to 89.14%.

[7] = Tasting in CoolMint Listerine against CoolMint Listerine as control; settings: 0.08% w/w of a 1.0% w/w EtOH solution in 99.92% w/w CoolMint Listerine
Experimental: A 0.08% w/w sample of 5-(4H-benzo[d][1,3]oxathiin-2-yl)-2,3-dimethoxyphenol (1.0% w/w in EtOH) was added to 99.92% w/w CoolMint Listerine™ and the contents were mixed well. The resulting mixture was tasted using CoolMint Listerine™ as the control.

[8] = Tasting in almond-flavored 2% milk against control without compound; settings: 0.01 g of a 1% EtOH solution with 0.01 g natural almond flavor in 99.98 g of 2% milk
Experimental: Natural almond flavor 0.01 g and 0.01 g of a 1% solution of 4-(4H-benzo[d][1,3]oxathiin-2-yl)benzonitrile in EtOH were added to 99.98 g of 2% milk and the contents were mixed well. This solution was tasted relative to the control, which was made up of 0.01 g of natural almond flavor and 99.99 g of 2% milk.

[9] = 10 ppm taste solution in water, tasted relative to water

In the case of `COc1ccc(C2OCc3ccccc3S2)cc1` (stereo not drawn) [2-(4-methoxyphenyl)-4H-benzo[d][1,3]oxathiine], the “Comments on flavor properties” value [1, 9] is reported as “cooling, slightly anisic, lingering cooling” and the “Comments on flavor modification” value [2] is reported as “cooling, anise, sweeter, bitter peel, more acidic, tingle, lingering flavor, better aroma and refreshing”.

For `COc1ccc(C2OCc3ccccc3S2)cc1O` (stereo not drawn) [5-(4H-benzo[d][1,3]oxathiin-2-yl)-2-methoxyphenol], the “Comments on flavor properties relative to the control” value ([1]; 1 ppm solution in water, control de-ionized water) was “sweet, cooling and lingering”, the “Comments on flavor modification” value [3] was “enhanced flavor impact, sweeter, cooling, enhanced creaminess, enhanced nutty character, sour aftertaste and brighter” and the “Comments on flavor modification” value [4] was “sweeter, cooling, enhanced sourness, salivating, aroma enhancement and increased impact”.

In the case of `CCOc1ccc(C2OCc3ccccc3S2)cc1O` (stereo not drawn) [Example 1, 5-(4H-benzo[d][1,3]oxathiin-2-yl)-2-ethoxyphenol], the “Comments on flavor modification” value [5] is reported as “enhances flavor, makes the banana riper, increases creaminess, sweeter and cooling”.

In the case of `COc1cc(C2OCc3ccccc3S2)cc(O)c1OC` (stereo not drawn) [Example 2, 5-(4H-benzo[d][1,3]oxathiin-2-yl)-2,3-dimethoxyphenol], the “Comments on flavor properties” value ([1]; 20 ppm solution in de-ionized water, control de-ionized water) is reported as “cooling, sweet, burns tongue, lingering sweetness, bitter and lingering cooling”, the “Comments on flavor modification” value [6] is reported as “sweet, cooling, astringent, juicy, mouth-watering and tart/bite” and the “Comments on flavor modification” value [7] is reported as “retronasal burn, cooling enhancement, intensifies flavor, increased eucalyptus, slow onset then strong burn, sweet and alcohol enhancement”.

For `N#Cc1ccc(C2OCc3ccccc3S2)cc1` (stereo not drawn) [Example 3, 4-(4H-benzo[d][1,3]oxathiin-2-yl)benzonitrile], the “Comments on flavor modification” value [8] was “stronger flavor, more toasted note, earthy note, more authentic, cooling, bitter almond like, sweeter, more nutty and nut skin”.

For `Oc1ccc(C2OCc3ccccc3S2)cc1` (stereo not drawn) [Example 4, 4-(4H-benzo[d][1,3]oxathiin-2-yl)phenol], the “Comments on flavor properties” value [1, 9] was “slightly sweet and slightly alliaceous” and the “Comments on flavor modification” value [2] was “cooling, dirty, sweeter, lemon peel, nutty and bitter”.
